Measurements reported in PMC10709440, “High-throughput ligand profile characterization in novel cell lines expressing seven heterologous insect olfactory receptors for the detection of volatile plant biomarkers” (Scientific Reports, 2023).
Where two headings read alike, the source gives them in different places.

Assays:
Drosophila OR98a = target: T1, Drosophila OR98a (Drosophila melanogaster, UniProt Q9VAZ3); assay: cell-based; parameters: GCaMP6 calcium fluorescence in stable HEK293 OR+ORCO lines; peak dF normalised to 50 uM VUAA1 (=1); conditions: HEK293; relative to 50 uM VUAA1 response; below 0.05 set to 0; read-out: % activation
T1 construct: expressed in transfected cells
T1 sequence (Q9VAZ3 1-397): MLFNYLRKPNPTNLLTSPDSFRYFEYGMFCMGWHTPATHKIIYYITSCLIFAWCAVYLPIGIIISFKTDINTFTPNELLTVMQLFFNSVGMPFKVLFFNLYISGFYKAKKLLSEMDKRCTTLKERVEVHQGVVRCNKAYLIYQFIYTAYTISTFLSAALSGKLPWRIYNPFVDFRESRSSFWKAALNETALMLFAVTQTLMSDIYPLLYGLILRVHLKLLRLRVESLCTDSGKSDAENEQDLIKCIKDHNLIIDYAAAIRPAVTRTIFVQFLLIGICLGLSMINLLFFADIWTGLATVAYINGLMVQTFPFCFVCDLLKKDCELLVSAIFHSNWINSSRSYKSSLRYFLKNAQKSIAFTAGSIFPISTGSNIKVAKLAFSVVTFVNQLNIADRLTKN
T1 sequence (Q9VNB5 1-486 partner): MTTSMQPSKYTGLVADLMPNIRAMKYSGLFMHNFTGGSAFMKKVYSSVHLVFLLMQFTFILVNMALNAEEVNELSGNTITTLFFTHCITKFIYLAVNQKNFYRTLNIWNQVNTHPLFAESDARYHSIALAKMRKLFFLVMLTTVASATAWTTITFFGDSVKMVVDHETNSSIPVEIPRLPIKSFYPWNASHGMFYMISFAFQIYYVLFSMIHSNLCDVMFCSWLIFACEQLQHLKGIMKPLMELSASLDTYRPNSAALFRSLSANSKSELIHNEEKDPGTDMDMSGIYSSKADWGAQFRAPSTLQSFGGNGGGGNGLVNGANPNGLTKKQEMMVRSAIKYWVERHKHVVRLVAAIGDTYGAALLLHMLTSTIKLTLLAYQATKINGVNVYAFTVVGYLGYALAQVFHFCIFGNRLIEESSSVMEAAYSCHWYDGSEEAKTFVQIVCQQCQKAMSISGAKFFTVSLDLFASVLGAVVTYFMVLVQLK
Experimental: Twelve thousand to 18,000 cells were plated into each well of a black wall, transparent bottom 384-well microplate (Greiner) 48 h or 72 h before the measurements and were simultaneously treated with 1 μg/mL doxycycline. […] The plate has 24 columns, thus we could record responses in up to eight different cell lines in each plate. On the day of the experiment, the growth medium was replaced with 20 µL assay buffer/well (140 mM NaCl, 5 mM KCl, 2 mM CaCl2, 1 mM MgCl2, 5 mM HEPES-Na, 20 mM glucose, pH 7.3, 340 mOsm). […] Baseline fluorescence (F0) was recorded for 5 s, after which 7 µL VOC buffer (140 mM NaCl, 5 mM KCl, 2 mM CaCl2, 1 mM MgCl2, 5 mM HEPES-Na, 31 mM glucose, 0.1% DMSO, pH 7.3, 340 mOsm) was injected into each well in one row and the fluorescence response was recorded for an additional 30 s, at a rate of one read/sec. VOC solutions (VOC buffer with 4× concentration of the final measured VOC concentration, 9 µL/well was injected) were measured on the same wells in a second round with the same protocol. Each individual concentration of a specific VOC sample was recorded in three wells for the same cell line on the same microplate. The raw data were exported in xls file format, F0 and FMAX values, and the fluorescence intensity changes (∆F) were calculated in Excel (Microsoft) (Supplementary file Data summary.xlsx) using the following equation: ΔF=FMAX-F0/F0 (see also Fig. 1C). On each plate, we recorded the response of each cell line to 50 µM VUAA1. The average of these ∆F values of each cell line were used to calculate the VUAA1-normalized values for the rest of the plate, by dividing VOC response ∆F values by the average VUAA1 response ∆F value of the corresponding OR cell line. Each VOC-OR combination was measured three times as tec The recorded FMAX, F0, ∆F, VUAA1-normalized ∆F values, as well as the OR name, the name of the tested sample, and the final concentration for each well were copied into supplementary file Data summary.xlsx, that was used to summarize all the plates recorded. Here, the averages of the measurements were calculated for each receptor-VOC-concentration combination. […] Each VOC was measured at 1, 10, and 100 µM final concentration on each receptor. VUAA1-normalized response was calculated as described in methods.

OR13a = conditions: insect cell line stably expressing OR13a; read-out: EC50 of concentration-dependent Ca2+ signals; cited from earlier work
OR47a = conditions: similar system to Xenopus oocytes, cited from earlier work

Row | Structure (SMILES) | activity at 1 µM (Drosophila OR98a) | activity at 10 µM (Drosophila OR98a) | activity at 100 µM (Drosophila OR98a) | EC50 (OR13a) | EC50 (OR47a; ref 34, read-out: calculated EC50) | EC50 (OR47a; ref 39, read-out: calculated EC50)
1 | C=C(C)C1CCC2(C)OC2C1 (single isomer, unassigned; (+)) [(+)-limonene oxide] | 0% | 0% | 0% |  |  | 
2 | C=CC(O)CCCCC (stereo not shown) [1-octen-3-ol] |  |  |  | 4.33 µM |  | 
3 | C=C1CC[C@@]23C[C@@H]1C(C)(C)[C@@H]2CC[C@H]3C [(+)-beta-cedrene] | 8.55% | 5.99% | 6.08% |  |  | 
4 | C=C1[C@H]2CC[C@@H]3[C@H]2C(C)(C)CCC[C@]13C [(+)-longifolene] | 0% | 12.6% | 0% |  |  | 
5 | C=C(C)[C@H]1CC=C(C)CC1 [(R)-(+)-limonene] | 0% | 0% | 0% |  |  | 
6 | CC1=CCC[C@@]2(C)[C@@H]3CC[C@]12CC3(C)C [(−)-α-neoclovene] | 14.8% |  |  |  |  | 
7 | CCCCCOC(C)=O [pentyl acetate] |  |  |  |  | 30.8 ± 1.28 µM | 10.7 ± 2 µM
